Experimental data: patent publication US20180228778A1, “COMPOSITIONS COMPRISING S1P RECEPTOR MODULATORS” (Akaal Pharma Pty Ltd, priority 2015, published 2018)

Assays:
[1] = tested on: DNFB-induced delayed type hypersensitivity (DTH) in BALB/c mice; test: Dinitroflurobenzene (DNFB)-induced delayed type hypersensitivity (DTH) in BALB/c mice; type: in vivo; conditions: oral, twice daily 3 mg/Kg
Text: The formulation of representative compound of formula I have shown efficacy in a delayed-type hypersensitivity (DTH) reaction model. The DTH is an expression of cell-mediated immunity and plays a major role in the pathology and chronicity of many inflammatory disorders including inflammatory skin indications. One of the most characteristic DTH phenomena is contact hypersensitivity, which is characterized by swelling and increased tissue levels of cytokines. Contact hypersensitivity (CHS) is a T cell mediated immune reaction in response to cutaneous sensitization and challenge with reactive haptens those are capable of binding directly to soluble and cell associated proteins and recognized by T cells in the context of self-MHC products. The cells that recognize antigen-protein complex in the skin are the Langerhans cells (LCs). After topical application of an allergen, Langerhans cells (LCs), the major antigen-presenting cells (APCs) for the induction of immune responses in skin, show enhanced expression of surface MHC class II molecules, and start to emigrate from the skin to regional lymph nodes where specific lymphocyte activation is thought to occur. After a second contact with the haptens, T cells are first recruited into tissues and then activated by antigen-presenting cells to produce cytokines that mediate local inflammation. Myeloperoxidase (MPO) is an enzyme exclusively present in neutrophils granules, which is commonly used as an index of granulocyte infiltration.
The effect of AKP (a compound of formula (I)) as an oral treatment was evaluated in dinitroflurobenzene (DNFB)-induced delayed type hypersensitivity (DTH) in BALB/c mice. A total of 18 female BALB/c mice were randomly assigned to 2 groups, Group 1: DTH treated with the vehicle of AKP (N=9); Group 2: DTH treated with AKP-11 twice daily dose of 3 mg/Kg (N=9). […] Ear thickness was measured with a micrometer before challenge and 24 h after challenge. Ear weight was measured 24 h after challenge. […]

[2] = tested on: LPS challenged macrophages (RAW cells); test: Inhibition of pro-inflammatory cytokines and factors in LPS challenged macrophages (RAW cells); type: cell-based; conditions: in-vitro, 1 to 5 μM
Method: The pro-inflammatory cytokines and factors are over expressed in inflammations, cancer and other indications. Lipopolysaccharide is well known to induce various pro-inflammatory factors in the monocytes (RAW cells) and the efficacy of compound on the LPS challenged cells was evaluated for the inhibition of tumor necrosis factor (TNFα), interleukins; IL1P, IL6, and factors such as inducible nitroxide synthase (iNOS), COX-2 and vascular endothelial growth factor (VEGF).

[3] = tested on: Phorbol ester mediated irritant contact dermatitis in Swiss albino mice; test: Phorbol ester mediated irritant model of contact dermatitis; type: in vivo; conditions: for reduction of ear swelling (inflammation): alone or in combination (Figure 3)
Method: The local application of Phorbol ester stimulates protein Kinase C (PKC), COX, LOX activity, formation of free radicals including the synthesis of mediators that regulate the production of TNF-α. The whole process mediates inflammation and hyperplasia as observed in inflammatory skin diseases such as psoriasis, eczema and others.
The topical efficacy of AKP (a compound of formula (I)) was determined in the Phorbol ester mediated irritant model of contact dermatitis. The 24 animals (Swiss albino mice) were divided in four groups (G1-4) of 6 each; G1 (control and vehicle treated), G2 (PMA challenged and vehicle treated), G3 (PMA challenged and clobetasol treated) and G4 (PMA challenged and AKP treated). The topical application of AKP (3% formulation; or as a DMSO solution) shown significant inhibition of ear inflammation (>40%; p<0.05). […] The combination reduced ear swelling (inflammation) by 43% (p[…]0.001) as shown in Figure-3 (Topical efficacy of AKP, betamethasone or combination in mice model of Phorbol ester mediated irritant contact dermatitis).

[4] = tested on: mild to moderate psoriasis; test: Phase I clinical study of topical use in healthy volunteers and psoriasis patients; type: in vivo, human; conditions: daily for 28 days
Method: In a clinical study healthy volunteers and psoriasis patients with mild to moderate psoriasis were treated daily for 28 days.
The local psoriasis severity index (LPSI) was measured and recorded significant efficacy (>40%; p=0.0016; Figure-4). FIG. 4 illustrates the clinical effect of AKP.

| SMILES | ear thickness ([1]; 24 h after DNFB challenge) | ear weight ([1]; 24 h after DNFB challenge) | tissue MPO activity (right ear) ([1]; at sacrifice) | inhibition of pro-inflammatory cytokines and factors (TNFα, IL1P, IL6, iNOS, COX-2, VEGF) [2] | count of lymphocytes in the blood ([3]; topical application) | inhibition of ear inflammation ([3]; topical, 3% formulation or DMSO solution, PMA challenged, p<0.05) | reduction of ear swelling (inflammation) ([3]; topical) | AKP in blood (systemic exposure) [4] | serious adverse events [4] | local psoriasis severity index (LPSI) efficacy ([4]; p=0.0016, Figure 4) |
| --- | --- | --- | --- | --- | --- | --- | --- | --- | --- | --- |
| CCCOc1ccc(-c2nc(-c3ccc4oc(C(N)(CO)CO)cc4c3)no2)cc1Cl [AKP] | significantly reduced | significantly reduced | significantly reduced | markedly inhibited | did not alter | > 40% | 30% | not evident in blood | no serious adverse event | > 40% |
| C[C@H]1C[C@H]2[C@@H]3CCC4=CC(=O)C=C[C@]4(C)[C@@]3(F)[C@@H](O)C[C@]2(C)[C@@]1(O)C(=O)CO [betamethasone, reference compound] |  |  |  |  |  |  | 30% |  |  |  |
